From patent publication US10710951B2, “Pharmaceutical composition containing verbenone derivative for treating or preventing neurodegenerative disease” (KOREA UNIVERSITY RESEARCH AND BUSINESS FOUNDATION, priority 2012, dated 2020)

How the values were obtained:
[1] = Oxygen radical absorbance capacity (ORAC) assay; set-up: ORAC assay TE25 (trolox equivalents): dose or concentration left out as unconfirmed
Procedure: An ORAC assay was performed as disclosed in the literature (Huang, D. et al., J. Agric. Food Chem., 53, 1841-56, 2005).
AAPH (60 mM) and fluorescein (50 nM) were prepared in buffer (75 mM phosphate buffer, pH7.4) without a sample or a sample or a standard (Trolox). Each of the samples and the standard was suspended in a solution of 7% RMCD (randomly methylated beta-cyclodextrin) in 50% acetone. RMCD was used to increase the solubility of oil-soluble samples. Each sample was sufficiently mixed with fluorescein solution (66 nM, 190 μl) by shaking for 5 seconds. After incubation at 37° C. for 10 minutes, AAPH (500 mM, 30 μl) was quickly added to each sample, and a decrease in the fluorescence was measured using a fluorescence microplate reader (Ex=485 nm, Em=530 nm; SpectraMax GeminiEM, Molecular Devices, Sunnyvale, Calif.) at 37° C. at 5-min intervals for 9 hours. To quantify the activity of scavenging peroxyl radicals, AUC (area-under-the-curve) was calculated according to the following equation 2, and net AUC was calculated according to the following equation 3, and the TE (trolox equivalents) of each sample was calculated according to the following equation 4 based on a standard curve of net AUC plotted according to an increase in trolox concentration. AUC=(0.5+f1/f0+f2/f0+f3/f0+ . . . +fn−2/f0+fn−1/f0+fn/f0)×5, Equation 2
wherein f0 is the first fluorescence at 0 min and time I. Net AUC=AUCsample−AUCblank. Equation 3 TE(trolox equivalents) of each sample=[netAUCsample […]]/[net AUCtrolox […]]. Equation 4
The antioxidant activities of the verbenone derivatives of the present invention were measured by the following two different chemical reactions: (1) a single electron transfer-based assay that is a […] [DPPH] assay that measures a decrease in DPPH acting as a free radical generator and a termination probe; and (2) a hydrogen atom transfer assay that is an oxygen radical absorbance capacity [[…]] assay that measures the competitive reaction kinetics of a peroxyl radical generator (AAPH; 2,2′-azobis-(2-methylpropionamide)-dihydrochloride) and each sample acting as an antioxidant for oxidizable fluorescent probe (fluorescein).

[2] = tested on: cortical neurons; test: Oxygen-glucose deprivation (OGD)/reoxygenation neuronal injury, LDH release; assay type: cell-based; conditions: rat cortical neurons, FIG. 1
Procedure: Cortical neurons (5×10^5 cells/ml) were isolated from fetal SD rats (16-17 days). Specifically, brain cortex was cut, and cells were isolated from the tissue by repeated trituration using a Pasteur pipette in buffer (Hanks' Balanced Salt Solution, HBSS). The cell suspension (1.8×10^3 cells/mm^2) was dispensed on a plate pretreated with poly-D-lysine ([…])/laminin ([…]). The cells were placed in 10% FBS-containing NBM medium, and incubated in a […]/5% CO2 atmosphere at 37° C. After 15-16 days of the incubation, the experiment was performed.
In order to induce hypoxic-ischemic symptoms in vitro, the incubated cells were placed in an anoxic chamber (partial oxygen pressure <2 mmHg). The cells were incubated glucose-free DMEM while being bubbled with an anaerobic gas mixture (95% N2 and 5% CO2) for 30 minutes to remove residual oxygen, and were incubated at 37° C. for 90 minutes for oxygen deprivation. After 90 minutes, the exposed solution was replaced with 25 mmol/L glucose-containing DMEM medium to stop the OGD reaction, and the cells were restored to normal oxygen conditions. Control cells not exposed to OGD were incubated in glucose (25 mmol/L)-containing DMEM medium provided with an aerobic gas mixture (95% air and 5% CO2). The cells were treated with each sample 30 minutes before, and during the entire period of OGD/re-oxygenation.
In order to measure cell injury or cell death, the amount of LDH released into the medium was measured using a cell viability measurement kit (Sigma-Aldrich, St. Louis, Mo.). Cell viability was expressed as the percentage of LDH relative to the total cellular LDH level measured in sister cultures lysed by freezing-thawing after the experiment.

[3] = tested on: cortical neurons; test: Intracellular levels (DCF fluorescence) of reactive oxygen species after OGD/reoxygenation; assay type: cell-based, SD rats; conditions: FIG. 3
Procedure: In order to examine the direct radical scavenging activities of the samples, at 1 hour after reoxygenation, the cells were stained with the fluorescent probe H2DCF-DA (2,7-dihydroichlorofluorescein diacetate) that is widely used to measure intracellular oxidative stress. After 2 hours, the cells were washed in EBSS buffer (containing 25 mM glucose, 1.8 mM CaCal2, 1.2 mM MgSO4 and 2.5 mM probenecid (pH7.4)), and the fluorescence of DCF was measured with a fluorescence microplate reader (SpectraMax GeminiEM; Ex=485 nm, Em=530 nm) or a fluorescence microscope (DM IL HC Fluo, Leica, Wetzlar, Germany) equipped with a digital camera (DFC420C, Leica, Wetzlar Germany). The fluorescence intensity was compensated with autofluorescence (i.e., the fluorescence of cells not loaded with H2DCF-DA).

With COc1cc(C=CC2=CC(=O)[C@H]3C[C@@H]2C3(C)C)cc(O)c1O [Compound 3f, (1S,5R)-4-(3,4-dihydroxy-5-methoxystyryl)-6,6-dimethylbicyclo[3.1.1]hept-3-en-2-one] the “ORAC assay Net AUC” value [1] was 99.06 ± 37.80, the “ORAC assay TE25 (trolox equivalents)” value ([1]; net AUC sample / net AUC trolox) was 2.83 ± 0.22 and the “neuronal injury induced by OGD (LDH release)” value ([2]; OGD/reoxygenation, comparable to MK801) was “significantly reduced neuronal injury”. The cytotoxicity [2] was “showed no cytotoxicity” and the “OGD-induced intracellular oxidative stress (DCF fluorescence)” value [3] was “reduced OGD-induced intracellular oxidative stress”.
